According to US20040121947A1, “Compounds which inhibit beta-secretase activity and methods of use thereof” (Oklahoma Medical Research Foundation, priority 2000, published 2004):
pKi: −log10 of the molar value. Read-outs that look alike come from different tables or passages of the source.

Biological target: T1, memapsin 2 (Homo sapiens, UniProt P56817)
T1 construct: pET-11 vector-derived residues 1-15 of promemapsin 2-T1 (N, cleaved yes); made in house; host or cells: E. coli
Experiment: Inhibition of memapsin 2 proteolytic activity, fluorogenic substrate FS-2
Format: biochemical
Conditions: for pKi / Ki app / Ki: memapsin 2; for Vi/Vo: ratio of initial cleavage velocities of FS-2 with/without compound, enzyme and inhibitor concentrations equal (e.g., about 80 nM, 100 nM)
Procedure: Ki is the inhibition equilibrium constant which indicates the ability of compounds to inhibit the β-secretase activity of memapsin 2 and memapsin 1. […] The K1 value is independent of the substrate, and converted from Ki apparent.
The Vi/Vo values depicted in Table 1 were determined at conditions under which the enzyme and inhibitor concentrations were equal (e.g., about 80 nM, 100 nM).
The relationship of Ki (independent of substrate concentration) to Kiapp is a function of substrate concentration in the assay and the Km for cleavage of the substrate by either memapsin 1 or memapsin 2 by the relationship:
The spontaneously activated memapsin 2 was employed in assays to assess the inhibition of memapsin 2 relative to memapsin 1 by compounds of the invention and in some crystallization studies.
An aliquot of the inhibitor of known concentration in DMSO was diluted into 1.8 ml 0.1 M NaOAc, pH 4.0. DMSO and added to a final concentration of 10% (v/v), and memapsin 2 (final concentration of 80 nM), followed by a 20 minute equilibration at 37° C. Compounds were evaluated for the ability to inhibit memapsin 1 and memapsin 2 at concentrations between about 10 nM and about 10 μm of inhibitor.

[1] = apparent Ki in presence of substrate FS-2, read-out: Ki app
[2] = independent of substrate, converted from Ki apparent, read-out: Ki
[3] = apparent Ki in presence of substrate FS-2
[4] = independent of substrate, converted from Ki apparent

T1 sequence (P56817 41-454 limits assumed): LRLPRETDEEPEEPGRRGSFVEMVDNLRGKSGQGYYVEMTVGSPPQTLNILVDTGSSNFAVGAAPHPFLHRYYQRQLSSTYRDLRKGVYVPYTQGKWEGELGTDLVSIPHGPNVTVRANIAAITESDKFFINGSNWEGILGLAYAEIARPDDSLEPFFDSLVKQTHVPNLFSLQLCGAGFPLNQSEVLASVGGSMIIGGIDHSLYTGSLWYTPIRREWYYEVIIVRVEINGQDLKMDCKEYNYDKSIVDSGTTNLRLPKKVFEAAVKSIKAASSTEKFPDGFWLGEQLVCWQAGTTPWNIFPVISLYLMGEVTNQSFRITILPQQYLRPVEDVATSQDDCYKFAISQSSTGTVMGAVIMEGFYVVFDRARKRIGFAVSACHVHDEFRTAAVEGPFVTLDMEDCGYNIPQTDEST

| SMILES | pKi [1] | pKi [2] | Ki app [3] | Ki [4] | Vi/Vo |
| --- | --- | --- | --- | --- | --- |
| CSCC[C@H](NC(=O)OCc1cccnc1)C(=O)N[C@@H](Cc1ccccc1)[C@@H](O)C[C@@H](C)C(=O)N[C@H](C(=O)NCc1ccccc1)C(C)C [MMI-040] | 5.68 | 5.89 | – | – | – |
| CSCC[C@H](NC(=O)[C@@H](NC(=O)OC(C)(C)C)C(C)C)C(=O)N[C@@H](CC(C)C)[C@@H](O)CN(C)C(=O)[C@H](NC(=O)OCc1ccccc1)C(C)C [MMI-061] | – | 2.01 | – | – | – |
| CSCC[C@H](NC(=O)[C@@H](NC(=O)OC(C)(C)C)C(C)C)C(=O)N[C@@H](CC(C)C)[C@@H](O)C[C@@H](C)C(=O)N[C@@H](C(C)C)C1CC(Cc2ccccc2)CC(=O)O1 (some centres unmarked) [MMI-140] | 4.41 | 4.62 | – | – | – |
| CSCC[C@H](NC(=O)[C@@H](NC(=O)OC(C)(C)C)C(C)C)C(=O)N[C@@H](CC(C)C)[C@@H](O)C[C@@H](C)C(=O)N1CCC[C@H]1C(=O)NCc1ccccc1 [MMI-044] | – | – | N.I. | N.I. | – |
| C=CCNC(=O)C[C@H](NC(=O)[C@@H](NC(=O)OCC=C)C(C)C)C(=O)N[C@@H](CC(C)C)[C@@H](O)C[C@@H](C)C(=O)N[C@H](C(=O)NCc1ccccc1)C(C)C [MMI-148] | 7.59 | 7.79 | – | – | 0.46 |
| CSCC[C@H](NC(=O)OCCn1nc(C)c2c1CSC2)C(=O)N[C@@H](CC(C)C)[C@@H](O)C[C@@H](C)C(=O)N[C@@H](CC(C)C)C(=O)NC(C)C [MMI-221] | 5.72 | 5.92 | – | – | – |
| CSCC[C@H](NC(=O)OCc1ccoc1)C(=O)N[C@@H](CC(C)C)[C@@H](O)C[C@@H](C)C(=O)N[C@H](C(=O)NCc1ccccc1)C(C)C [MMI-118] | 6.51 | 6.71 | – | – | 0.48 |
| CC(C)C[C@H](NC(=O)OC(C)(C)C)C(=O)N[C@@H](CCS(C)(=O)=O)C(=O)N[C@@H](CC(C)C)[C@@H](O)C[C@@H](C)C(=O)N[C@H](C(=O)NCc1ccccc1)C(C)C [MMI-071] | 8.72 | 8.93 | – | – | – |
| CSCC[C@H](NC(=O)[C@@H](NC(=O)OC(C)(C)C)C(C)C)C(=O)N[C@@H](CC(C)C)[C@@H](O)C[C@@H](CC(N)=O)C(=O)N[C@H](C(=O)NCc1ccccc1)C(C)C [MMI-038] | 6.97 | 7.18 | – | – | 0.4 |
| CCCCNC(=O)[C@@H](NC(=O)[C@H](C)C[C@H](O)[C@H](CC1CCCC1)NC(=O)[C@H](CCSC)NC(=O)OCn1nc(C)cc1C)C(C)C [MMI-172] | 6.35 | 6.55 | – | – | 1.05 |
| CSCC[C@H](NC(=O)OCn1nc(C)cc1C)C(=O)N[C@@H](CC(C)C)[C@@H](O)C[C@@H](C)C(=O)N[C@@H](CC(C)C)C(=O)NCC(C)C [MMI-166] | 6.97 | 7.17 | – | – | 0.76 |
| CSCC[C@H](NC(=O)c1cccc(O)c1O)C(=O)N[C@@H](CC(C)C)[C@@H](O)C[C@@H](C)C(=O)N[C@@H](CC(C)C)C(=O)NC(C)C [MMI-200] | 5.82 | 6.02 | – | – | – |
| CC(C)C[C@H](NC(=O)OC(C)(C)C)C(=O)N[C@@H](CC1CCCO1)C(=O)N[C@@H](CC(C)C)[C@@H](O)C[C@@H](C)C(=O)N[C@@H](CC(C)C)C(=O)NC(C)C (some centres unmarked) [MMI-205] | 7.31 | 7.52 | – | – | – |
| CC(C)C[C@H](NC(=O)[C@H](C)C[C@H](O)[C@H](CC(C)C)NC(=O)[C@H](CS(C)(=O)=O)NC(=O)OCc1ccccn1)C(=O)NCc1ccccc1 [MMI-126] | – | – | – | – | 0.72 |
| CSCC[C@H](NC(=O)OCc1ccco1)C(=O)N[C@@H](CC(C)C)[C@@H](O)C[C@@H](C)C(=O)N[C@H](C(=O)NCc1ccccc1)C(C)C [MMI-119] | – | – | – | – | 0.38 |
| CC(C)C[C@H](NC(=O)[C@@H]1CC(=O)NC/C=C\COC(=O)N[C@@H](C(C)C)C(=O)N1)[C@@H](O)C[C@@H](C)C(=O)N[C@H](C(=O)NCc1ccccc1)C(C)C [MMI-149] | – | – | – | – | 0.66 |

| SMILES | pKi [1] | pKi [2] | Ki app [3] | Ki [4] | Vi/Vo |
| --- | --- | --- | --- | --- | --- |
| CSCC[C@H](NC(=O)[C@@H](NC(=O)OC(C)(C)C)C(C)C)C(=O)N[C@@H](CC(C)C)[C@@H](O)C[C@@H](C)C(=O)N[C@@H]1CCCC[C@@H]1O [MMI-057] | 4.13 | 4.34 | – | – | – |
| CSCC[C@H](NC(=O)[C@H](CC(C)C)NC(C)=O)C(=O)N[C@@H](CC(C)C)[C@@H](O)C[C@@H](C)C(=O)N[C@H](C(=O)NCc1ccccc1)C(C)C [MMI-094] | 7.19 | 7.40 | – | – | – |
| CSCC[C@H](NC(=O)OCn1nc(C)cc1C)C(=O)N[C@@H](CC(C)C)[C@@H](O)C[C@@H](C)C(=O)N[C@H](C(=O)NCc1ccco1)C(C)C [MMI-212] | 7.15 | 7.35 | – | – | – |
| CC(C)C[C@H](NC(=O)[C@@H](NC(=O)[C@@H](NC(=O)OC(C)(C)C)C(C)C)[C@@H]1CCOC1)[C@@H](O)C[C@@H](C)C(=O)N[C@H](C(=O)NCc1ccccc1)C(C)C [MMI-020] | 5.79 | 6.00 | – | – | – |
| C=C(C[C@H](O)[C@H](CC(C)C)NC(=O)[C@H](CCSC)NC(=O)[C@@H](NC(=O)OC(C)(C)C)C(C)C)C(=O)N[C@H](C(=O)NCc1ccccc1)C(C)C [MMI-145] | – | – | – | – | 0.84 |
| CSCC[C@H](NC(=O)[C@@H](NC(=O)OC(C)(C)C)C(C)C)C(=O)N[C@@H](CC(C)C)[C@@H](O)C[C@@H](C)C(=O)N[C@@H](C)C(=O)NCc1ccccc1 [MMI-008] | 7.13 | 7.34 | – | – | – |
| CSCC[C@H](NC(=O)OCn1nc(C)cc1C)C(=O)N[C@@H](CC1CCCC1)[C@@H](O)C[C@@H](C)C(=O)N[C@@H](CC(C)C)C(=O)NCC(C)C [MMI-170] | – | – | – | – | 1.08 |
| CC(C)C[C@H](NC(=O)OC(C)(C)C)C(=O)N[C@H](CCS(C)(=O)=O)C(=O)N[C@@H](CC(C)C)[C@@H](O)C[C@@H](C)C(=O)N[C@H](C(=O)NCc1ccccc1)C(C)C [MMI-105] | 6.70 | 6.90 | – | – | – |
| CCC[C@H](C[C@H](O)[C@H](CC(C)C)NC(=O)[C@H](CSC)NC(=O)O[C@@H]1C[C@@H]2CCO[C@@H]2C1)C(=O)N[C@H](C(=O)NCc1ccccc1)C(C)C [MMI-027] | 4.94 | 5.14 | – | – | – |
| CC(C)C[C@H](NC(=O)OC(C)(C)C)[C@@H](O)C[C@@H](C)C(=O)N[C@@H](C)C(=O)NCc1ccccc1 [MMI-001] | – | 2.62 | – | – | – |
| CSCC[C@@H](COC(=O)N[C@@H](CC(C)C)[C@@H](O)C[C@@H](C)C(=O)N[C@H](C(=O)NCc1ccccc1)C(C)C)NC(=O)[C@@H](NC(=O)OC(C)(C)C)C(C)C [MMI-114] | 6.36 | 6.56 | – | – | – |
| CC(C)C[C@H](NC(=O)[C@H](CCS(C)(=O)=O)NC(=O)[C@@H](NC(=O)OC(C)(C)C)C(C)C)[C@@H](O)C[C@@H](C)C(=O)N[C@H](CO)C(C)C [MMI-043] | 4.31 | 4.51 | – | – | – |
| CSCC[C@H](NC(=O)O[C@H]1CCOC1)C(=O)N[C@@H](CC(C)C)[C@@H](O)C[C@@H](C)C(=O)N[C@@H](CC(C)C)C(=O)NC(C)C [MMI-227] | 6.14 | 6.35 | – | – | – |
| CSCC[C@H](NC(=O)[C@@H](NC(=O)OC(C)(C)C)C(C)C)C(=O)N[C@@H](CC(C)C)[C@@H](O)C[C@@H](CCO)C(=O)N[C@H](C(=O)NCc1ccccc1)C(C)C [MMI-037] | 6.98 | 7.19 | – | – | – |
| CSCC[C@H](NC(=O)C(C)Cn1nc(C)cc1C)C(=O)N[C@@H](CC(C)C)[C@@H](O)C[C@@H](C)C(=O)N[C@H](C(=O)NCC(C)C)C(C)C (some centres unmarked) [MMI-195] | 6.35 | 6.55 | – | – | – |
| CSCC[C@H](NC(=O)[C@@H](NC(=O)OC(C)(C)C)C(C)C)C(=O)N[C@@H](CC(C)C)[C@@H](O)C[C@@H](C)C(=O)N[C@H](COCc1ccccc1)C(C)C [MMI-041] | – | – | N.I. | N.I. | – |
